According to BindingDB's records for doi:10.1080/14756360310001650200 (Universit&Eacute, 2004):

Molecular target: T1, Chymase (Homo sapiens, UniProt P23946)
T1 sequence (P23946 whole entry): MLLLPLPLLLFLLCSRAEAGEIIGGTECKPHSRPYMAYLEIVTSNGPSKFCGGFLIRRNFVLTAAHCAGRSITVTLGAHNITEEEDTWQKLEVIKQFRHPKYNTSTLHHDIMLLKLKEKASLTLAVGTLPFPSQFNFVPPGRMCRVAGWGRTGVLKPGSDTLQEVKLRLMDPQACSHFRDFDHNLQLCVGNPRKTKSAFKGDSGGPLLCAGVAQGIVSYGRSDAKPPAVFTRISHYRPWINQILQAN
Experiment: Enzyme Inhibition Assay
Excerpt: Enzyme inhibitory activity using recombinant human chymase.

Row | IC50 [µM] | SMILES
1 | 86.8 | O=c1n2c(c(O)n1S(=O)(=O)c1ccc3ccccc3c1)Cc1ccccc1-2 [Tetrahydroisoquinoline hydantoin derivative, 3d]
2 | 49 | Cc1ccc(S(=O)(=O)N2C(=O)[C@@H]3Cc4ccccc4CN3C2=O)cc1 [Tetrahydroisoquinoline hydantoin derivative, 5a]
3 | 42.8 | Cc1ccc(S(=O)(=O)n2c(O)c3n(c2=O)Cc2ccccc2C3)cc1C [Tetrahydroisoquinoline hydantoin derivative, 5b]
4 | 17.5 | O=c1n2c(c(O)n1S(=O)(=O)c1ccc3ccccc3c1)Cc1ccccc1C2 [Tetrahydroisoquinoline hydantoin derivative, 5d]

Continued, compound first:

Row | SMILES | IC50 [µM]
5 | Cc1ccc(S(=O)(=O)n2c(O)c3n(c2=O)-c2ccccc2C3)cc1 [Tetrahydroisoquinoline hydantoin derivative, 3a] | 172
6 | Cc1ccc(S(=O)(=O)n2c(O)c3n(c2=O)-c2ccccc2C3)cc1C [Tetrahydroisoquinoline hydantoin derivative, 3b] | 206
7 | O=c1n2c(c(O)n1S(=O)(=O)c1ccc(Cl)c(Cl)c1)Cc1ccccc1-2 [Tetrahydroisoquinoline hydantoin derivative, 3c] | 374
